Measurements published in patent US20260167622A1, “PAN-KRAS DEGRADING AGENT, AND PREPARATION METHOD THEREFOR AND USE THEREOF” (LEADINGTAC PHARMACEUTICAL (SHAOXING) CO., LTD., priority 2022, published 2026).

Legend:
Assay type in all cases: cell-based
[1] = tested on: KRAS WT human gastric cancer cell MKN1; experiment: 3D cell proliferation inhibition assay, MKN1; details: MKN-1, 168 h, 3D culture, 7 days, CTG
Summary of the method: (§1)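 Seven-day 3D growth at 37 °C in low-adsorption wells, 5×10^2 cells/well except MKN1 (1×10^3), final compound range 10000–0.026 nM in 0.2% DMSO. CTG luminescence read-out; percent inhibition set against DMSO and medium-only wells, IC50 by curve fitting.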

[2] = tested on: KRAS G12D mutant human gastric cancer cell AGS; experiment: 3D cell proliferation inhibition assay, AGS; details: 168 h, 3D culture, 7 days, CTG
Summary of the method: as §1

[3] = tested on: KRAS G12V mutant human lung squamous carcinoma cell SW900; experiment: 3D cell proliferation inhibition assay, SW900; details: SW900, 168 h, 3D culture, 7 days, CTG
[4] = tested on: KRAS G12C mutant human non-small cell lung cancer cell NCI-H358; experiment: 3D cell proliferation inhibition assay, NCI-H358; details: NCI-H358, 168 h, 3D culture, 7 days, CTG
Summary of the method: as §1

[5] = molecular target: T1, KRAS G12V protein in SW900 cells (Homo sapiens, UniProt P01116, G12V); experiment: KRAS degradation assay (Western Blot) in SW900 cells; details: 24 h
T1 construct: endogenous in cells; host or cells: SW900
T1 sequence (P01116 1-188 isoform P01116-2 G12V): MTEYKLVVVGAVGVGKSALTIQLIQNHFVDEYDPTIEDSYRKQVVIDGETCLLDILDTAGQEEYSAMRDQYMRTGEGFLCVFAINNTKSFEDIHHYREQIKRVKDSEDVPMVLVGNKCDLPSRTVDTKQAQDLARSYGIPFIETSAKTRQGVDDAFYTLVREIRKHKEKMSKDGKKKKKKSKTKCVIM
Summary of the method: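 After a 24 h treatment spanning 0.03–3000 nM, remaining KRAS protein is quantified by ECL immunoblot against a β-actin internal reference. Degradation is expressed relative to vehicle-treated cells and curve-fitted for DC50 and Dmax.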

[6] = tested on: KRAS G13D mutant human colorectal cancer epithelial cell DLD-1; experiment: 3D cell proliferation inhibition assay, DLD-1; details: DLD-1, 168 h, 3D culture, 7 days, CTG
Summary of the method: as §1

IC50 [1] [nM]	IC50 [2] [nM]	IC50 [3] [nM]	IC50 [4] [nM]	DC50 [5] [nM]	Dmax [5] [%]	IC50 [6] [nM]	SMILES
≤ 50	≤ 50	≤ 50	≤ 50	≤ 50	80 to 100	≤ 50	C#Cc1c(F)ccc2cc(O)cc(-c3ncc4c(N5CCC[C@@](C)(O)C5)nc(OCC5(CN6CCN(CC7CCC8(CC7)CCN(C(=O)c7ccc(C)c(N9CCC(=O)NC9=O)c7)CC8)CC6)CC5)nc4c3F)c12 [Example 6, (R)-1-(5-(9-((4-((1-(((7-(8-ethynyl-7-fluoro-3-hydroxynaphthalen-1-yl)-8-fluoro-4-(3-hydroxy-3-methylpiperidin-1-yl)pyrido[4,3-d]pyrimidin-2-yl)oxy)methyl)cyclopropyl)methyl)piperazin-1-yl)methyl)-3-azaspiro[5.5]undecane-3-carbonyl)-2-methylphenyl)dihydropyrimidine-2,4(1H,3H)-dione]
≤ 50	≤ 50	≤ 50	≤ 50	≤ 50	80 to 100	≤ 50	C#Cc1c(F)ccc2cc(O)cc(-c3ncc4c(N5CCC[C@@](C)(O)C5)nc(OCC5(CN6CCN(CC7CCC8(CC7)CCN(C(=O)c7ccc(OC)c(N9CCC(=O)NC9=O)c7)CC8)CC6)CC5)nc4c3F)c12 [Example 7, (R)-1-(5-(9-((4-((1-(((7-(8-ethynyl-7-fluoro-3-hydroxynaphthalen-1-yl)-8-fluoro-4-(3-hydroxy-3-methylpiperidin-1-yl)pyrido[4,3-d]pyrimidin-2-yl)oxy)methyl)cyclopropyl)methyl)piperazin-1-yl)methyl)-3-azaspiro[5.5]undecane-3-carbonyl)-2-methoxyphenyl)dihydropyrimidine-2,4(1H,3H)-dione]
≤ 50	≤ 50	≤ 50	≤ 50	≤ 50	80 to 100	≤ 50	C#Cc1c(F)ccc2cc(O)cc(-c3ncc4c(N5CCC[C@@](C)(O)C5)nc(OCC5(CN6CCN(CC7CCC8(CC7)CCN(C(=O)c7ccc(Cl)c(N9CCC(=O)NC9=O)c7)CC8)CC6)CC5)nc4c3F)c12 [Example 1, (R)-1-(2-chloro-5-(9-((4-((1-(((7-(8-ethynyl-7-fluoro-3-hydroxynaphthalen-1-yl)-8-fluoro-4-(3-hydroxy-3-methylpiperidin-1-yl)pyrido[4,3-d]pyrimidin-2-yl)oxy)methyl)cyclopropyl)methyl)piperazin-1-yl)methyl)-3-azaspiro[5.5]undecane-3-carbonyl)phenyl)dihydropyrimidine-2,4(1H,3H)-dione]
≤ 50	≤ 50	100 to 500	≤ 50	≤ 50	80 to 100	≤ 50	CCc1cccc2cc(O)cc(-c3ncc4c(N5CCC[C@@](C)(O)C5)nc(OCC5(CN6CCN(CC7CCC8(CC7)CCN(C(=O)c7ccc(Cl)c(N9CCC(=O)NC9=O)c7)CC8)CC6)CC5)nc4c3F)c12 [Example 3, (R)-1-(2-chloro-5-(9-((4-((1-(((7-(8-ethyl-3-hydroxynaphthalen-1-yl)-8-fluoro-4-(3-hydroxy-3-methylpiperidin-1-yl)pyrido[4,3-d]pyrimidin-2-yl)oxy)methyl)cyclopropyl)methyl)piperazin-1-yl)methyl)-3-azaspiro[5.5]undecane-3-carbonyl)phenyl)dihydropyrimidine-2,4(1H,3H)-dione]
≤ 50	≤ 50	≤ 50	≤ 50	≤ 50	80 to 100	≤ 50	C#Cc1cccc2cc(O)cc(-c3ncc4c(N5CCC[C@@](C)(O)C5)nc(OCC5(CN6CCN(CC7CCC8(CC7)CCN(C(=O)c7ccc(Cl)c(N9CCC(=O)NC9=O)c7)CC8)CC6)CC5)nc4c3F)c12 [Example 11, (R)-1-(2-chloro-5-(9-((4-((1-(((7-(8-ethynyl-3-hydroxynaphthalen-1-yl)-8-fluoro-4-(3-hydroxy-3-methylpiperidin-1-yl)pyrido[4,3-d]pyrimidin-2-yl)oxy)methyl)cyclopropyl)methyl)piperazin-1-yl)methyl)-3-azaspiro[5.5]undecane-3-carbonyl)phenyl)dihydropyrimidine-2,4(1H,3H)-dione]
≤ 50	≤ 50	≤ 50	≤ 50	≤ 50	80 to 100	≤ 50	CCc1c(F)ccc2cc(O)cc(-c3ncc4c(N5CCC[C@@](C)(O)C5)nc(OCC5(CN6CCN(CC7CCC8(CC7)CCN(C(=O)c7ccc(Cl)c(N9CCC(=O)NC9=O)c7)CC8)CC6)CC5)nc4c3F)c12 [Example 2, (R)-1-(2-chloro-5-(9-((4-((1-(((7-(8-ethyl-7-fluoro-3-hydroxynaphthalen-1-yl)-8-fluoro-4-(3-hydroxy-3-methylpiperidin-1-yl)pyrido[4,3-d]pyrimidin-2-yl)oxy)methyl)cyclopropyl)methyl)piperazin-1-yl)methyl)-3-azaspiro[5.5]undecane-3-carbonyl)phenyl)dihydropyrimidine-2,4(1H,3H)-dione]
